In article PMC7822874, “Chemoprotective antimalarials identified through quantitative high-throughput screening of Plasmodium blood and liver stage parasites” (Scientific Reports, 2021) one finds viability and AC50 data, which are given here for 34 compounds.

Where two headings read alike, the source gives them in different places.

Data set [1] can be described thus: in vitro. The note with it: human.
Data set [2] concerns Plasmodium falciparum Dd2 asexual blood stage parasites. The data set can be described thus: microbe, parasite or virus in culture. Details: species or system Plasmodium falciparum Dd2 in human erythrocytes; single determination (one 11-point concentration-response curve). The following applies: Plasmodium falciparum, DD2, Erythrocyte, 72 h.
Where [3] appears, read: HepG2-A16-CD81EGFP cells, uninfected.

For the compound `CC(C)C(=O)OCC(=O)[C@@]12O[C@H](C3CCCCC3)O[C@@H]1C[C@H]1[C@@H]3CCC4=CC(=O)C=C[C@]4(C)[C@H]3[C@@H](O)C[C@@]12C` [NCGC00167484-01], in data set [1] (setting [3]), the viability at 48 h, 1 µM turned out to be 97% and the viability at 48 h, 3 µM came out at 94%. For the same compound, in data set [2] (read-out: AC50), the half-maximal activity concentration (AC50) worked out at 2660 nM.

`Cc1ccc(NC(=O)c2ccc(NCCCN3CCC(C)CC3)c([N+](=O)[O-])c2)cc1F` [MLS000689412-01]: in data set [1] (setting [3]), the viability at 48 h, 1 µM was found to be 106% and the viability at 48 h, 3 µM came to 104%. In addition, the half-maximal activity concentration (AC50) in data set [2] (read-out: AC50) stood at 6680 nM.

Take `O=C(CC[S+](=O)([O-])c1cc(Br)cc2c1N(C(=O)C1CC1)CC2)Nc1ccc(C(F)(F)F)cc1` [NCGC00107224-01]: the viability at 66 h in data set [1] (setting [3]) is 97.7%. For the same compound, the AC50 in data set [2] was 1330 nM.

Take `CCOc1ccc(NC2=C(OC)C(=O)c3ccccc3C2=O)cc1` [MLS000588108-01]: in data set [1] (setting [3]), the viability at 48 h, 1 µM stood at 101% and the viability at 48 h, 3 µM was 98%. For the same compound, the AC50 in data set [2] (read-out: AC50) came to 376 nM.

Turning to `O=c1c(-c2ccc(Br)cc2)coc2c(CN3CCCCC3)c(O)ccc12` [MLS001214902-01], the viability at 66 h in data set [1] (setting [3]) was 98.2%. In addition, in data set [2] (read-out: AC50), the half-maximal activity concentration (AC50) came to 2110 nM.

As for `O=C(NCCCN1CCCC1)c1ccc2c(c1)N([S+](=O)([O-])c1ccccc1F)CC2` [NCGC00430450-01], in data set [1] (setting [3]), the viability at 66 h was 97.4%. For the same compound, the AC50 in data set [2] (read-out: AC50) is 9440 nM.

Take `Cc1c(O)c(CN2CCCCC2)cc2c1oc(=O)c1ccccc12` [MLS000551544-01]: the viability at 66 h in data set [1] (setting [3]) worked out at 95.3%. The concentration at half-maximal activity (AC50) in data set [2] (read-out: AC50) was determined as 750 nM.

On to `COc1ccc(-c2csc3ncnc(Cl)c23)cc1` [MLS000765103-01], for which, in data set [1] (setting [3]), the viability at 48 h, 1 µM amounted to 86% and the viability at 48 h, 3 µM was determined as 86%. Also, in data set [2] (read-out: AC50), the AC50 was determined as 4220 nM.

`COc1ccc(NC2=C(c3ccc(OC)cc3)C(=O)c3ccccc32)cc1` [MLS000562793-01]: in data set [1] (setting [3]), the viability at 48 h, 1 µM was found to be 91% and the viability at 48 h, 3 µM came to 90%. The concentration at half-maximal activity (AC50) in data set [2] (read-out: AC50) was found to be 5960 nM.

Turning to `CCCc1cc(=O)oc2cc(C)cc(OCC(=O)Nc3cccnc3)c12` [MLS001160340-01], in data set [1] (setting [3]), the viability at 48 h, 1 µM was determined as 106% and the viability at 48 h, 3 µM came out at 99%. Moreover, the half-maximal activity concentration (AC50) in data set [2] (read-out: AC50) amounted to 531 nM.

For `COc1ccc(C(CCN2CCN(c3ccccc3)CC2)c2c(O)cc(OC)cc2OC)cc1` (stereo not shown) [MLS000879538-01], in data set [1] (setting [3]), the viability at 48 h, 1 µM came to 95% and the viability at 48 h, 3 µM is 95%. For the same compound, the AC50 in data set [2] (read-out: AC50) came out at 944 nM.

Turning to `Nc1cc2ccncc2c2ccccc12` [MLS000766157-01], in data set [1] (setting [3]), the viability at 48 h, 1 µM was 98% and the viability at 48 h, 3 µM was determined as 92%. Further, the AC50 in data set [2] (read-out: AC50) came out at 266 nM.

As to `CCOC(=O)c1cn(CC)c2cc(N3CCSCC3)c(F)cc2c1=O` [MLS000038775-01], in data set [1] (setting [3]), the viability at 48 h, 1 µM amounted to 89% and the viability at 48 h, 3 µM is 85%. For the same compound, the half-maximal activity concentration (AC50) in data set [2] (read-out: AC50) amounted to 1680 nM.

Consider `Cn1nc(C(F)(F)F)c(-c2cccc(C(F)(F)F)c2)c1NC(=O)Nc1ccc(F)cc1` [MLS000830770-01], for which, in data set [1] (setting [3]), the viability at 48 h, 1 µM was found to be 98% and the viability at 48 h, 3 µM came to 103%. Besides, the half-maximal activity concentration (AC50) in data set [2] (read-out: AC50) is 2370 nM.

Turning to `COc1cccc(Cn2c(Oc3ccccc3)nc3c2c(=O)n(C)c(=O)n3C)c1` [MLS000038011-01], in data set [1] (setting [3]), the viability at 48 h, 1 µM was determined as 107% and the viability at 48 h, 3 µM is 98%. Besides, in data set [2] (read-out: AC50), the AC50 was 4730 nM.

Turning to `Oc1cc2c(cc1CN1CCN(c3cccc(C(F)(F)F)c3)CC1)CCC2` [MLS000570420-01], in data set [1] (setting [3]), the viability at 48 h, 1 µM was 102% and the viability at 48 h, 3 µM came to 101%. Also, in data set [2] (read-out: AC50), the AC50 is 944 nM.

`Cc1cccc(NC(=O)Cn2c(C)c(C#N)c3ccccc32)c1C` [MLS000030212-01]: in data set [1] (setting [3]), the viability at 48 h was found to be 99.9% and the viability at 48 h, 1 µM stood at 99.9%. Also, the AC50 in data set [2] (read-out: AC50) turned out to be 5960 nM.

Take `OC(CNCc1cccc(Cl)c1)c1ccccc1` (stereo not shown) [MLS000674343-01]: the viability at 66 h in data set [1] (setting [3]) was 106%. In addition, the half-maximal activity concentration (AC50) in data set [2] (read-out: AC50) is 4730 nM.

Regarding `CCc1cc2c(Sc3nc4ccccc4s3)ncnc2s1` [MLS000544746-01], in data set [1] (setting [3]), the viability at 48 h, 1 µM was 104% and the viability at 48 h, 3 µM is 101%. For the same compound, the AC50 in data set [2] (read-out: AC50) was found to be 1500 nM.

On to `CC(CCc1ccccc1)NCC(O)c1cccc([N+](=O)[O-])c1` (stereo not shown) [MLS000712395-01], for which, in data set [1] (setting [3]), the viability at 48 h, 1 µM amounted to 104% and the viability at 48 h, 3 µM is 106%. In addition, in data set [2] (read-out: AC50), the AC50 amounted to 473 nM.

Consider `CCN(CC)CCC(c1ccc2c(c1)OCO2)c1c(O)cc(OC)cc1OC` (stereo not shown) [MLS000879498-01], for which, in data set [1] (setting [3]), the viability at 66 h came to 103%. The AC50 in data set [2] (read-out: AC50) was 4220 nM.

As for `CCN1CCCC1CNc1ncnc2c1[nH]c1ccc(Cl)cc12` (stereo not shown) [MLS000041736-01], in data set [1] (setting [3]), the viability at 48 h was 98.5% and the viability at 48 h, 1 µM worked out at 98.5%. Also, the AC50 in data set [2] was 2990 nM.

As for `CCCN(CCC)CCCNc1ccc(C(=O)Nc2cccc(OC)c2)cc1[N+](=O)[O-]` [MLS000689411-01], in data set [1] (setting [3]), the viability at 48 h, 1 µM was 106% and the viability at 48 h, 3 µM came to 104%. For the same compound, the AC50 in data set [2] (read-out: AC50) worked out at 5960 nM.

Take `CCN1CCN(Cc2ccc(NC(=O)c3cc(NC(=O)C(=O)c4c[nH]c5ccccc45)cc(OC)c3)cc2C(F)(F)F)CC1` [MLS003105970-01]: the viability at 66 h in data set [1] (setting [3]) was found to be 105%. Moreover, the AC50 in data set [2] (read-out: AC50) came out at 668 nM.

As for `Cc1nn(-c2nnc(NCc3ccccc3)nn2)c(C)c1Br` [MLS000704225-01], in data set [1] (setting [3]), the viability at 48 h, 1 µM was found to be 105% and the viability at 48 h, 3 µM stood at 92%. For the same compound, in data set [2] (read-out: AC50), the concentration at half-maximal activity (AC50) was determined as 841 nM.

Turning to `CCN1CCN(Cc2ccc(NC(=O)c3ccc(C)c(NC(=O)C(=O)c4c[nH]c5ccccc45)c3)cc2C(F)(F)F)CC1` [MLS003105967-01], the viability at 66 h in data set [1] (setting [3]) stood at 106%. In addition, the AC50 in data set [2] (read-out: AC50) was 1500 nM.

Consider `O=C(Nc1c(C(=O)c2ccccc2)oc2ccccc12)c1cc(-c2ccccc2O)n[nH]1` [MLS000331861-01], for which, in data set [1] (setting [3]), the viability at 48 h, 1 µM was 100% and the viability at 48 h, 3 µM is 99%. In data set [2] (read-out: AC50), the half-maximal activity concentration (AC50) turned out to be 2110 nM.

Consider `CC1(C)Cc2c(c(N3CCOCC3)nc3snc(Br)c23)CO1` [MLS000071231-01], for which, in data set [1] (setting [3]), the viability at 48 h, 1 µM came to 87% and the viability at 48 h, 3 µM amounted to 86%. Also, in data set [2] (read-out: AC50), the half-maximal activity concentration (AC50) amounted to 299 nM.

Turning to `O=C1c2ccccc2C2=Nc3ccccc3SC(c3ccccc3F)C12` (stereo not shown) [MLS000562246-01], in data set [1] (setting [3]), the viability at 48 h, 1 µM was 99% and the viability at 48 h, 3 µM was 95%. Besides, the AC50 in data set [2] (read-out: AC50) stood at 4730 nM.

`CCCN1CCc2c(sc3nc(SC)n(-c4ccccc4)c(=O)c23)C1` [MLS001173550-01]: in data set [1] (setting [3]), the viability at 48 h, 1 µM turned out to be 112% and the viability at 48 h, 3 µM came to 101%. For the same compound, the AC50 in data set [2] (read-out: AC50) was determined as 2660 nM.

For `CCOC(=O)c1c(C)n(-c2ccc(F)cc2)c2ccc(O)cc12` [MLS001195957-01], in data set [1] (setting [3]), the viability at 48 h, 1 µM was determined as 109% and the viability at 48 h, 3 µM stood at 93%. For the same compound, the half-maximal activity concentration (AC50) in data set [2] (read-out: AC50) was 6680 nM.

On to `CCOC(=O)c1cnc2cc(OCC(C)C)c(OCC(C)C)cc2c1O` [NCGC00167562-01], for which, in data set [1] (setting [3]), the viability at 48 h, 1 µM amounted to 83% and the viability at 48 h, 3 µM is 82%. Moreover, in data set [2] (read-out: AC50), the half-maximal activity concentration (AC50) turned out to be 944 nM.

On to `CCOC(=O)C1=C(c2ccccc2)N=c2sc(=Cc3cc(OC)c(OC)c(OC)c3)c(=O)n2C1c1cccs1` (stereo not shown) [MLS000572607-01], for which, in data set [1] (setting [3]), the viability at 48 h, 1 µM came out at 82% and the viability at 48 h, 3 µM is 81%. In data set [2] (read-out: AC50), the concentration at half-maximal activity (AC50) is 5960 nM.

On to `COc1ccc(CN2CCCC(C(=O)c3ccc(Cl)cc3)C2)c(O)c1` (stereo not shown) [MLS000998855-01], for which, in data set [1], the viability at 48 h, 1 µM came out at 101% and the viability at 48 h, 3 µM is 103%. Besides, in data set [2] (read-out: AC50), the half-maximal activity concentration (AC50) is 531 nM.

By viability is commonly meant a read-out of living cells in per cent, often relative to untreated cells. By AC50 is commonly meant the concentration at which the activity in the assay is half-maximal.
